For data set [1] the following is noted: cited from earlier work.
The next data set concerns LAB. Nature of the data set: In vitro RGE fermentation with LAB. The following applies: RGE incubated with LAB (1 billion CFU) for 7 days at 37 °C; result in words. It is filed as in vitro ADME.
For another data set, the target named is T1, P-gp (Homo sapiens, UniProt P08183).
T1 construct: host or cells: LLC-PK1-P-gp cells (passage no. 25–28)
Nature of the data set: Transport of ginsenosides in P-gp-overexpressing LLC-PK1-P-gp cells. Type of data set: in vitro ADME.

This is an account of results in paper PMC9775652, “Concomitant Administration of Red Ginseng Extract with Lactic Acid Bacteria Increases the Plasma Concentration of Deglycosylated Ginsenosides in Healthy Human Subjects” (Biomolecules, 2022).

T1 sequence (P08183 whole entry): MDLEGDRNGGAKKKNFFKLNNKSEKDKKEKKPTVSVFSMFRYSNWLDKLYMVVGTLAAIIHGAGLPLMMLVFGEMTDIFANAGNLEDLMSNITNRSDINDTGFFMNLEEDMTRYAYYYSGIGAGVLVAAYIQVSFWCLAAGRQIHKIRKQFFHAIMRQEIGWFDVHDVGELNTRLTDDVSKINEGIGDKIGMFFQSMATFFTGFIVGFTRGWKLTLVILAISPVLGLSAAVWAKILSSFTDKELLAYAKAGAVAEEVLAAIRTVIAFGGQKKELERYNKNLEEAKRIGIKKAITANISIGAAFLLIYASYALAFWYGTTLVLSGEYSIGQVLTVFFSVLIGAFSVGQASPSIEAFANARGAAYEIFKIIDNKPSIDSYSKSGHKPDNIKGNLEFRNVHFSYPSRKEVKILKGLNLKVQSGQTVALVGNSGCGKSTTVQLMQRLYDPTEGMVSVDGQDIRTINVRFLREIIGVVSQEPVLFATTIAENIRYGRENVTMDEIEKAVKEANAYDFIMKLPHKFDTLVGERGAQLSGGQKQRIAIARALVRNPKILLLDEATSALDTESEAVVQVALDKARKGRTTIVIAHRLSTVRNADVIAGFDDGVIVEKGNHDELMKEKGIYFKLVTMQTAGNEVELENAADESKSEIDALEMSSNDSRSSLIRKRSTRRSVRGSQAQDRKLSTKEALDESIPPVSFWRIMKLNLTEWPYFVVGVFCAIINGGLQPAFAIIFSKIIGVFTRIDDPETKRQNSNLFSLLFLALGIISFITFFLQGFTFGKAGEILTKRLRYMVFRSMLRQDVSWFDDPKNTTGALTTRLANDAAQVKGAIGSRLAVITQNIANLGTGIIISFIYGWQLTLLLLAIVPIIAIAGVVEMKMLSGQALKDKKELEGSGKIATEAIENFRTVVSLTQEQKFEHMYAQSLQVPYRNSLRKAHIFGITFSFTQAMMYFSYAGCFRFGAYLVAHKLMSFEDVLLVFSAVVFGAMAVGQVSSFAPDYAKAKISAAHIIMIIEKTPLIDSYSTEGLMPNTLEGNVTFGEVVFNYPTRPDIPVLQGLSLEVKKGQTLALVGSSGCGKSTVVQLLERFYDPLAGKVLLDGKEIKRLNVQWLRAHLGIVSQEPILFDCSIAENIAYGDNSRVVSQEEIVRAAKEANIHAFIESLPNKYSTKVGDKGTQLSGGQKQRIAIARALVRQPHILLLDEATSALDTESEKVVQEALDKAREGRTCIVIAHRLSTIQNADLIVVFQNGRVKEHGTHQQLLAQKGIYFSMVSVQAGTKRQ

Turning to `CC(C)=CCC[C@](C)(O)[C@H]1CC[C@]2(C)[C@@H]1[C@H](O)C[C@@H]1[C@@]3(C)CC[C@H](O[C@@H]4O[C@H](CO)[C@@H](O)[C@H](O)[C@H]4O)C(C)(C)[C@@H]3CC[C@]12C` [GRh2, ginsenoside Rh2], in data set [1], the “Oral BA” value is given as 5%. Also, the “Relative abundance / metabolic activity following fermentation of RGE with LAB” value with LAB was “significantly increased”. In addition, the “CLint (intrinsic clearance)” value at P-gp (P-gp-mediated B to A transport in LLC-PK1-P-gp cells) turned out to be 502 µL/min. Also, the efflux ratio at 20 μM on P-gp (pig, LLC-PK1, LLC-PK1-P-gp cells, 20 μM, B to A Papp divided by A to B Papp, read-out: ER) stood at 18. Also, the Papp A→B at 20 μM on P-gp (pig, LLC-PK1-P-gp cells, 20 μM, mean ± SD, n = 3, read-out: A to B permeability) stood at 0.08 ± 0.01 ×10⁻⁶ cm/s. The Papp B→A at 20 μM at P-gp (pig, LLC-PK1-P-gp cells, 20 μM, mean ± SD, n = 3, read-out: B to A permeability) was found to be 1.39 ± 0.13 ×10⁻⁶ cm/s.
